Measurements: the NIST ThermoML archive (doi:10.1016/j.jct.2005.01.017)
Values joined by “and” are separate entries in the source; they are usually repeats but may differ in a detail not shown here. Equal values may be shown once. Numbers after ± are expanded uncertainties.

Tests used:
[1] = 101 kPa, Liquid
[2] = xn = mol fraction of the nth substance listed; conditions: 101 kPa, Liquid, x1 = 1

Question: Which mass density ([1]; 293.15 K) does the source give for `Cc1ccccc1C` [1,2-dimethylbenzene] here?
Answer: 878.6 ± 40 kg/m3

Question: And the mass density ([1]; 303.15 K)?
Answer: 872.25 ± 40 kg/m3

Question: And the mass density ([1]; 313.15 K)?
Answer: 859.67 ± 40 kg/m3

Question: What about the mass density ([1]; 323.15 K) of the same compound?
Answer: 840.84 ± 40 kg/m3

Question: And the mass density ([1]; 333.15 K)?
Answer: 815.74 ± 40 kg/m3

Question: What about the mass density ([1]; 343.15 K) of the same compound?
Answer: 784.38 ± 40 kg/m3

Question: With `Cc1cccc(C)c1` [1,3-dimethylbenzene] + CC1COC(=O)O1 as the compound, how does the mass density ([2]; 293.15 K) read?
Answer: 864.2 ± 40 kg/m3

Question: And the mass density ([2]; 303.15 K)?
Answer: 855.76 ± 40 kg/m3

Question: What about the mass density ([2]; 313.15 K) of the same compound?
Answer: 847.11 ± 40 kg/m3

Question: And the mass density ([2]; 323.15 K)?
Answer: 838.27 ± 40 kg/m3

Question: And the mass density ([2]; 333.15 K)?
Answer: 829.22 ± 40 kg/m3

Question: What about the mass density ([2]; 343.15 K) of the same compound?
Answer: 819.97 ± 40 kg/m3

Question: What about the mass density ([2]; 353.15 K) of the same compound?
Answer: 810.51 ± 40 kg/m3

Question: For `Cc1ccc(C)cc1` [1,4-dimethylbenzene], which mass density ([1]; 293.15 K) is on record?
Answer: 861 ± 1.8 kg/m3

Question: What about the mass density ([1]; 303.15 K) of the same compound?
Answer: 852.28 ± 1.9 kg/m3

Question: What about the mass density ([1]; 313.15 K) of the same compound?
Answer: 843.58 ± 1.9 kg/m3

Question: And the mass density ([1]; 323.15 K)?
Answer: 834.92 ± 2 kg/m3

Question: And the mass density ([1]; 333.15 K)?
Answer: 826.27 ± 2.1 kg/m3

Question: What about the mass density ([1]; 343.15 K) of the same compound?
Answer: 817.66 ± 2.2 kg/m3

Question: And the mass density ([1]; 353.15 K)?
Answer: 809.07 ± 2.2 kg/m3

Question: With `Cc1ccc(C)cc1` [1,4-dimethylbenzene] + CC1COC(=O)O1 as the compound, how does the mass density ([2]; 293.15 K) read?
Answer: 861 ± 40 kg/m3

Question: What about the mass density ([2]; 303.15 K) of the same compound?
Answer: 852.28 ± 40 kg/m3

Question: What about the mass density ([2]; 313.15 K) of the same compound?
Answer: 843.58 ± 40 kg/m3

Question: What about the mass density ([2]; 323.15 K) of the same compound?
Answer: 834.92 ± 40 kg/m3

Question: And the mass density ([2]; 333.15 K)?
Answer: 826.27 ± 40 kg/m3

Question: And the mass density ([2]; 343.15 K)?
Answer: 817.66 ± 40 kg/m3

Question: And the mass density ([2]; 353.15 K)?
Answer: 809.07 ± 40 kg/m3

Question: For `Cc1cccc(C)c1` [1,3-dimethylbenzene], which mass density ([1]; 293.15 K) is on record?
Answer: 864.2 ± 1.9 kg/m3

Question: What about the mass density ([1]; 303.15 K) of the same compound?
Answer: 855.76 ± 2 kg/m3

Question: What about the mass density ([1]; 313.15 K) of the same compound?
Answer: 847.11 ± 2.1 kg/m3

Question: What about the mass density ([1]; 323.15 K) of the same compound?
Answer: 838.27 ± 2.1 kg/m3

Question: What about the mass density ([1]; 333.15 K) of the same compound?
Answer: 829.22 ± 2.2 kg/m3

Question: And the mass density ([1]; 343.15 K)?
Answer: 819.97 ± 2.3 kg/m3

Question: What about the mass density ([1]; 353.15 K) of the same compound?
Answer: 810.51 ± 2.3 kg/m3

Question: With `CC1COC(=O)O1` (configuration not stated) [4-methyl-1,3-dioxolan-2-one] as the compound, how does the mass density ([1]; 293.15 K) read?
Answer: 1200.25 ± 40 kg/m3

Question: And the mass density ([1]; 303.15 K)?
Answer: 1180.55 ± 40 kg/m3 and 1180.56 ± 40 kg/m3

Question: What about the mass density ([1]; 313.15 K) of the same compound?
Answer: 1161.28 ± 40 kg/m3

Question: What about the mass density ([1]; 323.15 K) of the same compound?
Answer: 1142.43 ± 40 kg/m3

Question: What about the mass density ([1]; 333.15 K) of the same compound?
Answer: 1123.99 ± 40 kg/m3

Question: And the mass density ([1]; 343.15 K)?
Answer: 1105.98 ± 40 kg/m3

Question: And the mass density ([1]; 353.15 K)?
Answer: 1088.38 ± 40 kg/m3

Question: Which mass density ([2]; 293.15 K) does the source give for `Cc1ccccc1C` [1,2-dimethylbenzene] + CC1COC(=O)O1 here?
Answer: 878.6 ± 40 kg/m3

Question: And the mass density ([2]; 303.15 K)?
Answer: 872.25 ± 40 kg/m3

Question: What about the mass density ([2]; 313.15 K) of the same compound?
Answer: 859.67 ± 40 kg/m3

Question: What about the mass density ([2]; 323.15 K) of the same compound?
Answer: 840.84 ± 40 kg/m3

Question: What about the mass density ([2]; 333.15 K) of the same compound?
Answer: 815.74 ± 40 kg/m3

Question: And the mass density ([2]; 343.15 K)?
Answer: 784.38 ± 40 kg/m3
